Assay results as given in ChEMBL document CHEMBL4184318, “Identification of Fast-Acting 2,6-Disubstituted Imidazopyridines That Are Efficacious in the in Vivo Humanized Plasmodium falciparum NODscidIL2Rγ null Mouse Model of Malaria” (J Med Chem, 2018).
In brackets after ≈: the same amount, converted by molar mass.

Columns and labels:
Mus musculus [1] = experiment: Dose normalized AUC (0 to 23 hrs) in NOD-scid IL-2Rgamma-null mouse model engrafted with Plasmodium falciparum 3D7 infected human erythrocytes at 25 mg/kg via oral gavage by LC-MS/MS method; type: ADME, organism-based; settings: in vivo
[2] = Kinetic solubility of the compound in HCl at pH 2 after 20 hrs by shake flask method; type: physicochemical; settings: read-out: Kinetic_solubility
[3] = Kinetic solubility of the compound in phosphate buffered saline at pH 6.5 after 20 hrs by shake flask method; type: physicochemical; settings: read-out: Kinetic_solubility
[4] = Kinetic solubility of the compound in FaSSIF at pH 6.5 after 20 hrs by shake flask method; type: physicochemical; settings: read-out: Kinetic_solubility
[5] = Drug metabolism in iv or po dosed BALB/c mouse plasma assessed as metabolism at cyclohexane ring by LC-MS/MS method; type: ADME, organism-based; settings: in vivo
[6] = Volume of distribution in Sprague-Dawley rat at 3 mg/kg, iv administered as 2 mins of infusion by LC-MS/MS method; type: ADME, organism-based; settings: in vivo
[7] = Volume of distribution in BALB/c mouse at 5 mg/kg, iv administered as 2 mins of infusion by LC-MS/MS method; type: ADME, organism-based; settings: in vivo
[8] = Cmax in Sprague-Dawley rat at 15 mg/kg administered via oral gavage as bolus dose by LC-MS/MS method; type: ADME, organism-based; design: dose 15 mg/kg, route oral; settings: in vivo
[9] = Cmax in Sprague-Dawley rat at 3 mg/kg, iv administered as 2 mins of infusion by LC-MS/MS method; type: ADME, organism-based; design: dose 3 mg/kg, route intravenous; settings: in vivo
[10] = Cmax in BALB/c mouse at 20 mg/kg administered via oral gavage as bolus dose by LC-MS/MS method; type: ADME, organism-based; design: dose 20 mg/kg, route oral; settings: in vivo
[11] = Cmax in BALB/c mouse at 5 mg/kg, iv administered as 2 mins of infusion by LC-MS/MS method; type: ADME, organism-based; design: dose 5 mg/kg, route intravenous; settings: in vivo
[12] = Tmax in Sprague-Dawley rat at 15 mg/kg administered via oral gavage as bolus dose by LC-MS/MS method; type: ADME, organism-based; settings: in vivo
[13] = Tmax in BALB/c mouse at 20 mg/kg administered via oral gavage as bolus dose by LC-MS/MS method; type: ADME, organism-based; settings: in vivo
Rattus norvegicus [14] = experiment: Dose normalized AUC (0 to infinity) in Sprague-Dawley rat at 15 mg/kg administered via oral gavage as bolus dose by LC-MS/MS method; type: ADME, organism-based; settings: in vivo
Rattus norvegicus [15] = experiment: Dose normalized AUC (0 to infinity) in Sprague-Dawley rat at 3 mg/kg, iv administered as 2 mins of infusion by LC-MS/MS method; type: ADME, organism-based; settings: in vivo
Mus musculus [16] = experiment: Dose normalized AUC (0 to infinity) in BALB/c mouse at 20 mg/kg administered via oral gavage as bolus dose by LC-MS/MS method; type: ADME, organism-based; settings: in vivo
Mus musculus [17] = experiment: Dose normalized AUC (0 to infinity) in BALB/c mouse at 5 mg/kg, iv administered as 2 mins of infusion by LC-MS/MS method; type: ADME, organism-based; settings: in vivo
[18] = Oral bioavailability in Sprague-Dawley rat at 15 mg/kg administered via gavage as bolus dose by LC-MS/MS method; type: ADME, organism-based; settings: in vivo
[19] = Oral bioavailability in BALB/c mouse at 20 mg/kg administered via gavage as bolus dose by LC-MS/MS method; type: ADME, organism-based; settings: in vivo
[20] = Cmax in NOD-scid IL-2Rgamma-null mouse model engrafted with Plasmodium falciparum 3D7 infected human erythrocytes at 5 mg/kg administered via oral gavage measured over 23 hrs post first dose by LC-MS/MS method; type: ADME, organism-based; design: dose 5 mg/kg, route oral; settings: in vivo
[21] = Cmax in NOD-scid IL-2Rgamma-null mouse model engrafted with Plasmodium falciparum 3D7 infected human erythrocytes at 10 mg/kg administered via oral gavage measured over 23 hrs post first dose by LC-MS/MS method; type: ADME, organism-based; design: dose 10 mg/kg, route oral; settings: in vivo
[22] = Cmax in NOD-scid IL-2Rgamma-null mouse model engrafted with Plasmodium falciparum 3D7 infected human erythrocytes at 25 mg/kg administered via oral gavage measured over 23 hrs post first dose by LC-MS/MS method; type: ADME, organism-based; design: dose 25 mg/kg, route oral; settings: in vivo
[23] = Cmax in NOD-scid IL-2Rgamma-null mouse model engrafted with Plasmodium falciparum 3D7 infected human erythrocytes at 50 mg/kg administered via oral gavage measured over 23 hrs post first dose by LC-MS/MS method; type: ADME, organism-based; design: dose 50 mg/kg, route oral; settings: in vivo
Mus musculus [24] = experiment: Dose normalized Cmax in NOD-scid IL-2Rgamma-null mouse model engrafted with Plasmodium falciparum 3D7 infected human erythrocytes at 5 mg/kg administered via oral gavage measured over 23 hrs post first dose by LC-MS/MS method; type: ADME, organism-based; settings: in vivo
Mus musculus [25] = experiment: Dose normalized Cmax in NOD-scid IL-2Rgamma-null mouse model engrafted with Plasmodium falciparum 3D7 infected human erythrocytes at 10 mg/kg administered via oral gavage measured over 23 hrs post first dose by LC-MS/MS method; type: ADME, organism-based; settings: in vivo
Mus musculus [26] = experiment: Dose normalized Cmax in NOD-scid IL-2Rgamma-null mouse model engrafted with Plasmodium falciparum 3D7 infected human erythrocytes at 25 mg/kg administered via oral gavage measured over 23 hrs post first dose by LC-MS/MS method; type: ADME, organism-based; settings: in vivo
Mus musculus [27] = experiment: Dose normalized Cmax in NOD-scid IL-2Rgamma-null mouse model engrafted with Plasmodium falciparum 3D7 infected human erythrocytes at 50 mg/kg administered via oral gavage measured over 23 hrs post first dose by LC-MS/MS method; type: ADME, organism-based; settings: in vivo
[28] = Tmax in NOD-scid IL-2Rgamma-null mouse model engrafted with Plasmodium falciparum 3D7 infected human erythrocytes at 5 mg/kg administered via oral gavage measured over 23 hrs post first dose by LC-MS/MS method; type: ADME, organism-based; settings: in vivo
[29] = Tmax in NOD-scid IL-2Rgamma-null mouse model engrafted with Plasmodium falciparum 3D7 infected human erythrocytes at 10 mg/kg administered via oral gavage measured over 23 hrs post first dose by LC-MS/MS method; type: ADME, organism-based; settings: in vivo
[30] = Tmax in NOD-scid IL-2Rgamma-null mouse model engrafted with Plasmodium falciparum 3D7 infected human erythrocytes at 25 mg/kg administered via oral gavage measured over 23 hrs post first dose by LC-MS/MS method; type: ADME, organism-based; settings: in vivo
[31] = Tmax in NOD-scid IL-2Rgamma-null mouse model engrafted with Plasmodium falciparum 3D7 infected human erythrocytes at 50 mg/kg administered via oral gavage measured over 23 hrs post first dose by LC-MS/MS method; type: ADME, organism-based; settings: in vivo
[32] = AUC (0 to 23 hrs) in NOD-scid IL-2Rgamma-null mouse model engrafted with Plasmodium falciparum 3D7 infected human erythrocytes at 5 mg/kg administered via oral gavage by LC-MS/MS method; type: ADME, organism-based; design: dose 5 mg/kg, time < 23 hr, route oral; settings: in vivo
[33] = AUC (0 to 23 hrs) in NOD-scid IL-2Rgamma-null mouse model engrafted with Plasmodium falciparum 3D7 infected human erythrocytes at 10 mg/kg administered via oral gavage by LC-MS/MS method; type: ADME, organism-based; design: dose 10 mg/kg, time < 23 hr, route oral; settings: in vivo
[34] = AUC (0 to 23 hrs) in NOD-scid IL-2Rgamma-null mouse model engrafted with Plasmodium falciparum 3D7 infected human erythrocytes at 25 mg/kg administered via oral gavage by LC-MS/MS method; type: ADME, organism-based; design: time < 23 hr, dose 25 mg/kg, route oral; settings: in vivo
[35] = AUC (0 to 23 hrs) in NOD-scid IL-2Rgamma-null mouse model engrafted with Plasmodium falciparum 3D7 infected human erythrocytes at 50 mg/kg administered via oral gavage by LC-MS/MS method; type: ADME, organism-based; design: dose 50 mg/kg, time < 23 hr, route oral; settings: in vivo
Mus musculus [36] = experiment: Dose normalized AUC (0 to 23 hrs) in NOD-scid IL-2Rgamma-null mouse model engrafted with Plasmodium falciparum 3D7 infected human erythrocytes at 5 mg/kg administered via oral gavage by LC-MS/MS method; type: ADME, organism-based; settings: in vivo
Mus musculus [37] = experiment: Dose normalized AUC (0 to 23 hrs) in NOD-scid IL-2Rgamma-null mouse model engrafted with Plasmodium falciparum 3D7 infected human erythrocytes at 10 mg/kg administered via oral gavage by LC-MS/MS method; type: ADME, organism-based; settings: in vivo
Mus musculus [38] = experiment: Dose normalized AUC (0 to 23 hrs) in NOD-scid IL-2Rgamma-null mouse model engrafted with Plasmodium falciparum 3D7 infected human erythrocytes at 50 mg/kg administered via oral gavage by LC-MS/MS method; type: ADME, organism-based; settings: in vivo
[39] = Drug metabolism in iv or po dosed Sprague-Dawley rat plasma assessed as oxidation of pyridine ring by LC-MS/MS method; type: ADME, organism-based; settings: in vivo
[40] = Drug metabolism in iv or po dosed Sprague-Dawley rat plasma assessed as oxidation of phenyl ring by LC-MS/MS method; type: ADME, organism-based; settings: in vivo
[41] = Volume of distribution in Sprague-Dawley rat at 5 mg/kg, iv administered as 2 mins of infusion by LC-MS/MS method; type: ADME, organism-based; settings: in vivo
[42] = Cmax in Sprague-Dawley rat at 20 mg/kg administered via oral gavage as bolus dose by LC-MS/MS method; type: ADME, organism-based; design: dose 20 mg/kg, route oral; settings: in vivo
[43] = Cmax in Sprague-Dawley rat at 5 mg/kg, iv administered as 2 mins of infusion by LC-MS/MS method; type: ADME, organism-based; design: dose 5 mg/kg, route intravenous; settings: in vivo
[44] = Cmax in BALB/c mouse at 10 mg/kg administered via oral gavage as bolus dose by LC-MS/MS method; type: ADME, organism-based; design: dose 10 mg/kg, route oral; settings: in vivo
[45] = Tmax in Sprague-Dawley rat at 20 mg/kg administered via oral gavage as bolus dose by LC-MS/MS method; type: ADME, organism-based; settings: in vivo
[46] = Tmax in BALB/c mouse at 10 mg/kg administered via oral gavage as bolus dose by LC-MS/MS method; type: ADME, organism-based; settings: in vivo
Rattus norvegicus [47] = experiment: Dose normalized AUC (0 to infinity) in Sprague-Dawley rat at 20 mg/kg administered via oral gavage as bolus dose by LC-MS/MS method; type: ADME, organism-based; settings: in vivo
Rattus norvegicus [48] = experiment: Dose normalized AUC (0 to infinity) in Sprague-Dawley rat at 5 mg/kg, iv administered as 2 mins of infusion by LC-MS/MS method; type: ADME, organism-based; settings: in vivo
Mus musculus [49] = experiment: Dose normalized AUC (0 to infinity) in BALB/c mouse at 10 mg/kg administered via oral gavage as bolus dose by LC-MS/MS method; type: ADME, organism-based; settings: in vivo
[50] = Oral bioavailability in Sprague-Dawley rat at 20 mg/kg administered via gavage as bolus dose by LC-MS/MS method; type: ADME, organism-based; settings: in vivo

Structure (SMILES)	AUC/dose (Mus musculus [1]) [µg·h/mL/mg/kg]	solubility kinetic at 20 h [2] [µM]	solubility kinetic at 20 h [3] [µM]	solubility kinetic at 20 h [4] [µM]	Cmax [20] [ng/mL]	Cmax [21] [ng/mL]	Cmax [22] [ng/mL]	Cmax [23] [ng/mL]	Cmax/dose (Mus musculus [24]) [µg/mL/mg/kg]	Cmax/dose (Mus musculus [25]) [µg/mL/mg/kg]	Cmax/dose (Mus musculus [26]) [µg/mL/mg/kg]	Cmax/dose (Mus musculus [27]) [µg/mL/mg/kg]	Tmax [28] [h]	Tmax [29] [h]	Tmax [30] [h]	Tmax [31] [h]	AUC(0-t) at 23 h [32] [ng·h/mL]	AUC(0-t) at 23 h [33] [ng·h/mL]	AUC(0-t) at 23 h [34] [ng·h/mL]	AUC(0-t) at 23 h [35] [ng·h/mL]	also measured
FC1(F)CCC(c2nc3cnc(Nc4ccc(C(F)(F)F)cn4)cc3[nH]2)CC1	2.311	199 (≈ 79.1 µg/mL)	99 (≈ 39.3 µg/mL)	93 (≈ 37 µg/mL)	431	927	3340	8650	0.086	0.093	0.167	0.173	0.5 to 2	0.5 to 4	0.5 to 23	0.25 to 2	4380	8670	46200	88000	Drug metabolism [5]: Metabolite_Notdetected; Vd [6]: 3 L/kg; Vd [7]: 1.5 L/kg; Cmax [8]: 1.2 µM; Cmax [9]: 2.6 µM; Cmax [10]: 9.6 µM; Cmax [11]: 5.1 µM; Tmax [12]: 3 h; Tmax [13]: 1 h; AUC/dose (Rattus norvegicus [14]): 342 µM·min; AUC/dose (Rattus norvegicus [15]): 286 µM·min; AUC/dose (Mus musculus [16]): 2178 µM·min; AUC/dose (Mus musculus [17]): 1078 µM·min; bioavailability [18]: 24%; bioavailability [19]: 51%; AUC/dose (Mus musculus [36]): 0.876 µg·h/mL/mg/kg; AUC/dose (Mus musculus [37]): 0.867 µg·h/mL/mg/kg; AUC/dose (Mus musculus [38]): 1.759 µg·h/mL/mg/kg
Fc1ccc(Nc2cc3[nH]c(-c4ccc(F)c(C(F)(F)F)c4)nc3cn2)nc1	1.632	13 (≈ 5.09 µg/mL)	< 5	50 to 100 (≈ 19.6 to 39.1 µg/mL)	573	1580	3090	4860	0.115	0.158	0.155	0.097	4 to 6	4	4	2 to 4	6510	16900	32600	84100	Drug metabolism [39]: Metabolite_Detected; Drug metabolism [40]: Metabolite_Notdetected; Vd [41]: 2.3 L/kg; Cmax [42]: 4.7 µM; Cmax [43]: 5.4 µM; Cmax [44]: 4 µM; Tmax [45]: 12 h; Tmax [46]: 1.7 h; AUC/dose (Rattus norvegicus [47]): 5923 µM·min; AUC/dose (Rattus norvegicus [48]): 1692 µM·min; AUC/dose (Mus musculus [49]): 2622 µM·min; bioavailability [50]: 88%; AUC/dose (Mus musculus [36]): 1.302 µg·h/mL/mg/kg; AUC/dose (Mus musculus [37]): 1.686 µg·h/mL/mg/kg; AUC/dose (Mus musculus [38]): 1.681 µg·h/mL/mg/kg
